From patent US20240018123A1, “COMPOUND FOR INHIBITING OR DISINTEGRATING ANDROGEN RECEPTOR, AND PHARMACEUTICAL USE THEREOF” (KOREA RESEARCH INSTITUTE OF CHEMICAL TECHNOLOGY, priority 2020, published 2024)

Target: T1, Androgen receptor (AR) (Homo sapiens, UniProt P10275, T878A)
T1 construct: 5.5×10^5 LNCap cells were injected into each well of a 6-well plate; endogenous in cells; host or cells: LNCaP
T1 sequence (P10275 1-920 T878A): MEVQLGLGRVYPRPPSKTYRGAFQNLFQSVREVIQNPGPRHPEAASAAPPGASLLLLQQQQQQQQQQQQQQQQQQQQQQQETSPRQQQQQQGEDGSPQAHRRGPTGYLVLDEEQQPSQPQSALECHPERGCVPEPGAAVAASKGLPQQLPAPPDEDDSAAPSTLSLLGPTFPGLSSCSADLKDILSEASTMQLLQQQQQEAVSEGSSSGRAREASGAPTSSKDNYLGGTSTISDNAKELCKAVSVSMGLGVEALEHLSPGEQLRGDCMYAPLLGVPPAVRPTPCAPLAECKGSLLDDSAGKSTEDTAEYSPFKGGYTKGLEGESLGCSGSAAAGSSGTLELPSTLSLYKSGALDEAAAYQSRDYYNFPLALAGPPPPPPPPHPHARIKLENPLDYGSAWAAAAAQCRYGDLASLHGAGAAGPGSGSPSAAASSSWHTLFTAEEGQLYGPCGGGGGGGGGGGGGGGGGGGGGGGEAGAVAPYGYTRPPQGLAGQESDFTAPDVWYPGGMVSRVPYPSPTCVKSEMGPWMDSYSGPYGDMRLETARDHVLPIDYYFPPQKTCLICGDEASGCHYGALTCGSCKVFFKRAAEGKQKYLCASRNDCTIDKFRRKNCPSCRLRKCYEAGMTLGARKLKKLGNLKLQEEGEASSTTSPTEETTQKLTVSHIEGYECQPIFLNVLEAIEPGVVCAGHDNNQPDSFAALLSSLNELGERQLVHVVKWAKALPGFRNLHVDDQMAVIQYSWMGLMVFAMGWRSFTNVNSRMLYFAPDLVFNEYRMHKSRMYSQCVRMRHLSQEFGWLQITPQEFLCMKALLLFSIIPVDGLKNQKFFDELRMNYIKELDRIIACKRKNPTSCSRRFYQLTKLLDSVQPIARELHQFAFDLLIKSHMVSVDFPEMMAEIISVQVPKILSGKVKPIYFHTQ
Experiment: Assessment of AR proteolytic activity (Western blotting of LNCap cell lysates)
Assay type: cell-based
Conditions: 24 hours of treatment, Western blotting quantified with Image J
Protocol: Assessment of AR Proteolytic Activity
Androgen receptor (AR) proteolytic activity of the compound according to the present invention was evaluated as follows: Specifically, 5.5×10^5 LNCap cells were injected into each well of a 6-well plate. […] After 24 hours of treatment, cells were collected and lysed using RIPA Lysis buffer (50 mM Tris-HCl, pH7.5, 150 mM NaCl, 1% Triton X-100, 2 mM EDTA, 0.1% SDS, 0.5% sodium deoxycholate and protease inhibitor cocktail) to make cell lysates. Western blotting was performed, and the results were quantified using Image J program.

N#Cc1ccc(OC2CCC(NC(=O)c3ccc(N4CCC(CN5CCN(c6ccc7nnn(C8CCC(=O)NC8=O)c(=O)c7c6)CC5)CC4)nc3)CC2)cc1Cl (stereo not drawn) [Example 160, N-((1r,4r)-4-(3-chloro-4-cyanophenoxy)cyclohexyl)-6-(4-((4-(3-(2,6-dioxopiperidin-3-yl)-4-oxo-3,4-dihydrobenzo[d][1,2,3]triazin-6-yl)piperazin-1-yl)methyl)piperidin-1-yl)nicotinamide]
Degradation (1 μM treated in LNCaP, % AR remaining): 31%

N#Cc1ccc(O[C@H]2CC[C@@H](NC(=O)c3ccc(N4CCN(CCCOc5ccc6nnn(C7CCC(=O)NC7=O)c(=O)c6c5)CC4)nc3)CC2)cc1Cl (stereo partly drawn) [Example 161, N-((1r,4r)-4-(3-chloro-4-cyanophenoxy)cyclohexyl)-6-(4-(3-((3-(2,6-dioxopiperidin-3-yl)-4-oxo-3,4-dihydrobenzo[d][1,2,3]triazin-6-yl)oxy)propyl)piperazin-1-yl)nicotinamide]
Degradation (1 μM treated in LNCaP, % AR remaining): 36%

CC1(C)C(NC(=O)c2ccc(N3CCC(CN4CCN(c5ccc6nnn(C7CCC(=O)NC7=O)c(=O)c6c5)CC4)CC3)nc2)C(C)(C)C1Oc1ccc(C#N)c(Cl)c1 (stereo not drawn) [Example 162, N-((1r,3r)-3-(3-chloro-4-cyanophenoxy)-2,2,4,4-tetramethylcyclobutyl)-6-(4-((4-(3-(2,6-dioxopiperidin-3-yl)-4-oxo-3,4-dihydrobenzo[d][1,2,3]triazin-6-yl)piperazin-1-yl)methyl)piperidin-1-yl)nicotinamide]
Degradation (1 μM treated in LNCaP, % AR remaining): 30%

CC1(C)C(NC(=O)c2ccc(N3CCN(CCCCCOc4ccc5nnn(C6CCC(=O)NC6=O)c(=O)c5c4)CC3)nc2)C(C)(C)C1Oc1ccc(C#N)c(Cl)c1 (stereo not drawn) [Example 163, N-((1r,3r)-3-(3-chloro-4-cyanophenoxy)-2,2,4,4-tetramethylcyclobutyl)-6-(4-(5-((3-(2,6-dioxopiperidin-3-yl)-4-oxo-3,4-dihydrobenzo[d][1,2,3]triazin-6-yl)oxy)pentyl)piperazin-1-yl)nicotinamide]
Degradation (1 μM treated in LNCaP, % AR remaining): 10%

N#Cc1ccc(OC2CCC(NC(=O)c3ccc(N4CCC(CN5CCN(c6ccc7c(=O)n(C8CCC(=O)NC8=O)nnc7c6)CC5)CC4)nc3)CC2)cc1Cl (stereo not drawn) [Example 164, N-((1r,4r)-4-(3-chloro-4-cyanophenoxy)cyclohexyl)-6-(4-((4-(3-(2,6-dioxopiperidin-3-yl)-4-oxo-3,4-dihydrobenzo[d][1,2,3]triazin-7-yl)piperazin-1-yl)methyl)piperidin-1-yl)nicotinamide]
Degradation (1 μM treated in LNCaP, % AR remaining): 13%

CC1(C)C(NC(=O)c2ccc(N3CCC(CN4CCN(c5ccc6c(=O)n(C7CCC(=O)NC7=O)nnc6c5)CC4)CC3)cc2)C(C)(C)C1Oc1ccc(C#N)c(Cl)c1 (stereo not drawn) [Example 165, N-((1r,3r)-3-(3-chloro-4-cyanophenoxy)-2,2,4,4-tetramethylcyclobutyl)-4-(4-((4-(3-(2,6-dioxopiperidin-3-yl)-4-oxo-3,4-dihydrobenzo[d][1,2,3]triazin-7-yl)piperazin-1-yl)methyl)piperidin-1-yl)benzamide]
Degradation (1 μM treated in LNCaP, % AR remaining): 8%

CC1(C)C(NC(=O)c2ccc(N3CCC(CN4CCN(c5ccc6nnn(C7CCC(=O)NC7=O)c(=O)c6c5)CC4)CC3)cc2)C(C)(C)C1Oc1ccc(C#N)c(Cl)c1 (stereo not drawn) [Example 166, N-((1r,3r)-3-(3-chloro-4-cyanophenoxy)-2,2,4,4-tetramethylcyclobutyl)-4-(4-((4-(3-(2,6-dioxopiperidin-3-yl)-4-oxo-3,4-dihydrobenzo[d][1,2,3]triazin-6-yl)piperazin-1-yl)methyl)piperidin-1-yl)benzamide]
Degradation (1 μM treated in LNCaP, % AR remaining): 13%

N#Cc1ccc(O[C@H]2CC[C@@H](NC(=O)c3ccc(N4CCC(CN5CC6(CCN(c7ccc8c(=O)n(C9CCC(=O)NC9=O)nnc8c7)CC6)C5)CC4)nc3)CC2)cc1Cl (stereo partly drawn) [Example 167, N-((1r,4r)-4-(3-chloro-4-cyanophenoxy)cyclohexyl)-6-(4-((7-(3-(2,6-dioxopiperidin-3-yl)-4-oxo-3,4-dihydrobenzo[d][1,2,3]triazin-7-yl)-2,7-diazaspiro[3.5]nonan-2-yl)methyl)piperidin-1-yl)nicotinamide]
Degradation (1 μM treated in LNCaP, % AR remaining): 19%

N#Cc1ccc(O[C@H]2CC[C@H](NC(=O)c3ccc(N4CCC(CN5CC6(CCN(c7ccc8nnn(C9CCC(=O)NC9=O)c(=O)c8c7)CC6)C5)CC4)nc3)CC2)cc1Cl (stereo partly drawn) [Example 168, N-((1r,4r)-4-(3-chloro-4-cyanophenoxy)cyclohexyl)-6-(4-((7-(3-(2,6-dioxopiperidin-3-yl)-4-oxo-3,4-dihydrobenzo[d][1,2,3]triazin-6-yl)-2,7-diazaspiro[3.5]nonan-2-yl)methyl)piperidin-1-yl)nicotinamide]
Degradation (1 μM treated in LNCaP, % AR remaining): 10%

CC1(C)C(NC(=O)c2ccc(N3CCC(CN4CC5(CCN(c6ccc7c(=O)n(C8CCC(=O)NC8=O)nnc7c6)CC5)C4)CC3)nc2)C(C)(C)C1Oc1ccc(C#N)c(Cl)c1 (stereo not drawn) [Example 169, N-((1r,3r)-3-(3-chloro-4-cyanophenoxy)-2,2,4,4-tetramethylcyclobutyl)-6-(4-((7-(3-(2,6-dioxopiperidin-3-yl)-4-oxo-3,4-dihydrobenzo[d][1,2,3]triazin-7-yl)-2,7-diazaspiro[3.5]nonan-2-yl)methyl)piperidin-1-yl)nicotinamide]
Degradation (1 μM treated in LNCaP, % AR remaining): 16%

CC1(C)C(NC(=O)c2ccc(N3CCC(CN4CC5(CCN(c6ccc7nnn(C8CCC(=O)NC8=O)c(=O)c7c6)CC5)C4)CC3)nc2)C(C)(C)C1Oc1ccc(C#N)c(Cl)c1 (stereo not drawn) [Example 170, N-((1r,3r)-3-(3-chloro-4-cyanophenoxy)-2,2,4,4-tetramethylcyclobutyl)-6-(4-((7-(3-(2,6-dioxopiperidin-3-yl)-4-oxo-3,4-dihydrobenzo[d][1,2,3]triazin-6-yl)-2,7-diazaspiro[3.5]nonan-2-yl)methyl)piperidin-1-yl)nicotinamide]
Degradation (1 μM treated in LNCaP, % AR remaining): 16%

CC1(C)[C@H](NC(=O)c2ccc(N3CCC(CN4CCC5(CC4)CN(c4ccc6c(=O)n(C7CCC(=O)NC7=O)nnc6c4)C5)CC3)nc2)C(C)(C)[C@H]1Oc1ccc(C#N)c(Cl)c1 (stereo partly drawn) [Example 171, N-((1r,3r)-3-(3-chloro-4-cyanophenoxy)-2,2,4,4-tetramethylcyclobutyl)-6-(4-((2-(3-(2,6-dioxopiperidin-3-yl)-4-oxo-3,4-dihydrobenzo[d][1,2,3]triazin-7-yl)-2,7-diazaspiro[3.5]nonan-7-yl)methyl)piperidin-1-yl)nicotinamide]
Degradation (1 μM treated in LNCaP, % AR remaining): 11%

CC1(C)[C@H](NC(=O)c2ccc(N3CCC(CN4CCC5(CC4)CN(c4ccc6nnn(C7CCC(=O)NC7=O)c(=O)c6c4)C5)CC3)nc2)C(C)(C)[C@H]1Oc1ccc(C#N)c(Cl)c1 (stereo partly drawn) [Example 172, N-((1r,3r)-3-(3-chloro-4-cyanophenoxy)-2,2,4,4-tetramethylcyclobutyl)-6-(4-((2-(3-(2,6-dioxopiperidin-3-yl)-4-oxo-3,4-dihydrobenzo[d][1,2,3]triazin-6-yl)-2,7-diazaspiro[3.5]nonan-7-yl)methyl)piperidin-1-yl)nicotinamide]
Degradation (1 μM treated in LNCaP, % AR remaining): 7%

CC1(C)C(NC(=O)c2ccc(N3CCC4(CC3)CN(CC3CCN(c5ccc6c(=O)n(C7CCC(=O)NC7=O)nnc6c5)CC3)C4)nc2)C(C)(C)C1Oc1ccc(C#N)c(Cl)c1 (stereo not drawn) [Example 173, N-((1r,3r)-3-(3-chloro-4-cyanophenoxy)-2,2,4,4-tetramethylcyclobutyl)-6-(2-((1-(3-(2,6-dioxopiperidin-3-yl)-4-oxo-3,4-dihydrobenzo[d][1,2,3]triazin-7-yl)piperidin-4-yl)methyl)-2,7-diazaspiro[3.5]nonan-7-yl)nicotinamide]
Degradation (1 μM treated in LNCaP, % AR remaining): 9%

CC1(C)C(NC(=O)c2ccc(N3CCC4(CC3)CN(CC3CCN(c5ccc6nnn(C7CCC(=O)NC7=O)c(=O)c6c5)CC3)C4)nc2)C(C)(C)C1Oc1ccc(C#N)c(Cl)c1 (stereo not drawn) [Example 174, N-((1r,3r)-3-(3-chloro-4-cyanophenoxy)-2,2,4,4-tetramethylcyclobutyl)-6-(2-((1-(3-(2,6-dioxopiperidin-3-yl)-4-oxo-3,4-dihydrobenzo[d][1,2,3]triazin-6-yl)piperidin-4-yl)methyl)-2,7-diazaspiro[3.5]nonan-7-yl)nicotinamide]
Degradation (1 μM treated in LNCaP, % AR remaining): 15%
